The values below come from ChEMBL document CHEMBL4219103, “Design and synthesis of 1,4-substituted 1H-1,2,3-triazolo-quinazolin-4(3H)-ones by Huisgen 1,3-dipolar cycloaddition with PI3Kγ isoform selective activity” (Bioorg Med Chem Lett, 2018).

Test [1] in a line: Antiproliferative activity against human FR2 cells after 24 to 48 hrs by MTT assay. Format: cell-based. A general note: Tetrazolium assays rely on reduction of a dye to a coloured formazan, in cell work by metabolically active cells.
In a further test the test system is HL-60. As to the kind of experiment: Antiproliferative activity against human HL60 cells after 24 to 48 hrs by MTT assay. In kind it is functional, cell-based.
For a further test, the system named is MCF7. As to the kind of experiment: Antiproliferative activity against human MCF7 cells after 24 to 48 hrs by MTT assay. In kind it is functional, cell-based.
For the next test, the system named is HCT-116. As to the kind of experiment: Antiproliferative activity against human HCT116 cells after 24 to 48 hrs by MTT assay. In kind it is functional, cell-based.
In the next test the test system is COLO 205. The test is described as follows: Antiproliferative activity against human COLO205 cells after 24 to 48 hrs by MTT assay. Format: functional, cell-based.
The test system of a further test is A549. The test is described as follows: Antiproliferative activity against human A549 cells after 24 to 48 hrs by MTT assay. Format: functional, cell-based.

For orientation: IC50 means the concentration needed to halve the response being measured. A lower IC50 goes with greater potency in that assay.

The structures appear in SMILES notation.

For the compound `Cc1ccccc1-n1c(Cn2cc(-c3ccccc3F)nn2)nc2ccccc2c1=O`, the IC50 (in test [1]; with HL-60; with MCF7; in the test with HCT-116; in the test on COLO 205; with A549) was greater than 10 µM each time.
Take `Cc1ccc(NCc2cn(Cc3nc4cccc(C)c4c(=O)n3-c3ccccc3C(F)(F)F)nn2)cc1C`: the IC50 (in test [1]; with HL-60; in the test with MCF7; with HCT-116; with COLO 205; in the test on A549) was greater than 10 µM throughout.
With `Cc1ccccc1-n1c(Cn2cc(-c3ccccc3F)nn2)nc2cccc(C)c2c1=O`, the IC50 (in test [1]; with HL-60; with MCF7; in the test on HCT-116; in the test with COLO 205; with A549) was greater than 10 µM in each case.
Regarding `COc1ccc(-c2cn(Cc3nc4cccc(C)c4c(=O)n3-c3ccccc3C(F)(F)F)nn2)c(C)c1`, the IC50 (in test [1]; in the test with HL-60; in the test with MCF7; in the test on HCT-116; in the test on COLO 205; in the test on A549) was greater than 10 µM throughout.
`Cc1cccc2nc(Cn3cc(-c4ccccc4)nn3)n(-c3ccccc3C(F)(F)F)c(=O)c12`: the IC50 (in test [1]; with HL-60; in the test with MCF7; in the test on HCT-116; with COLO 205; with A549) was greater than 10 µM throughout.
For `Cc1ccccc1-n1c(Cn2cc(-c3ccccc3)nn2)nc2ccccc2c1=O`, the IC50 (in test [1]; in the test with HL-60; in the test on MCF7; in the test on HCT-116; in the test on COLO 205; with A549) was greater than 10 µM in each case.
For the compound `Cc1ccccc1-n1c(Cn2cc(-c3cc(C(F)(F)F)cc(C(F)(F)F)c3)nn2)nc2ccccc2c1=O`, the IC50 (in test [1]; in the test on HL-60; with MCF7; in the test on HCT-116; in the test with COLO 205; with A549) was greater than 10 µM each time.
On to `Cc1ccccc1-n1c(Cn2cnc3c(N)ncnc32)nc2cccc(C)c2c1=O`, for which the IC50 was greater than 10 µM in test [1]; 1 µM with HL-60; greater than 10 µM with MCF7; greater than 10 µM in the test on HCT-116; greater than 10 µM in the test on COLO 205; greater than 10 µM in the test on A549.
As to `Cc1ccccc1-n1c(Cn2cc(-c3ccccc3C(F)(F)F)nn2)nc2ccccc2c1=O`, the IC50 (in test [1]; in the test with HL-60; in the test on MCF7; in the test on HCT-116; with COLO 205; in the test with A549) was greater than 10 µM throughout.
As to `Cc1ccccc1-n1c(Cn2cc(COc3cccc(F)c3)nn2)nc2ccccc2c1=O`, the IC50 (in test [1]; with HL-60; with MCF7; in the test on HCT-116; in the test on COLO 205; in the test on A549) was greater than 10 µM throughout.
`Cc1ccccc1-n1c(Cn2cc(-c3cccnc3)nn2)nc2cccc(C)c2c1=O`: the IC50 (in test [1]; in the test with HL-60; in the test with MCF7; in the test on HCT-116; in the test on COLO 205; in the test on A549) was greater than 10 µM each time.
Regarding `Cc1ccccc1-n1c(Cn2cc(-c3ccc(OC(F)(F)F)cc3)nn2)nc2cccc(C)c2c1=O`, the IC50 (in test [1]; in the test on HL-60; in the test on MCF7; in the test on HCT-116; in the test with COLO 205; with A549) was greater than 10 µM each time.
Take `Cc1ccccc1-n1c(Cn2cc(CNS(=O)(=O)c3ccccc3)nn2)nc2cccc(C)c2c1=O`: the IC50 (in test [1]; in the test on HL-60; with MCF7; with HCT-116; in the test on COLO 205; in the test on A549) was greater than 10 µM each time.
As to `Cc1cccc2nc(Cn3cc(-c4cccnc4)nn3)n(-c3ccccc3C(F)(F)F)c(=O)c12`, the IC50 (in test [1]; with HL-60; in the test with MCF7; in the test on HCT-116; in the test with COLO 205; in the test with A549) was greater than 10 µM in each case.
Take `COc1ccc(OCc2cn(Cc3nc4ccccc4c(=O)n3-c3ccccc3C)nn2)cc1`: the IC50 (in test [1]; in the test with HL-60; in the test with MCF7; in the test with HCT-116; in the test with COLO 205; in the test on A549) was greater than 10 µM in each case.
For `Cc1cccc(OCc2cn(Cc3nc4ccccc4c(=O)n3-c3ccccc3C)nn2)c1`, the IC50 (in test [1]; in the test on HL-60; with MCF7; in the test with HCT-116; in the test on COLO 205; in the test with A549) was greater than 10 µM each time.
Regarding `Cc1ccccc1-n1c(Cn2cc(-c3ccc(Br)cc3)nn2)nc2ccccc2c1=O`, the IC50 (in test [1]; in the test with HL-60; with MCF7; in the test with HCT-116; in the test on COLO 205; in the test on A549) was greater than 10 µM throughout.
`COc1ccc(S(=O)(=O)NCc2cn(Cc3nc4ccccc4c(=O)n3-c3ccccc3C)nn2)cc1`: the IC50 (in test [1]; in the test with HL-60; with MCF7; with HCT-116; in the test with COLO 205; with A549) was greater than 10 µM each time.
Consider `Cc1ccccc1-n1c(Cn2cc(CNS(=O)(=O)c3ccc(F)cc3F)nn2)nc2cccc(C)c2c1=O`, for which the IC50 (in test [1]; in the test on HL-60; in the test with MCF7; with HCT-116; with COLO 205; with A549) was greater than 10 µM in each case.
Take `Cc1ccccc1-n1c(Cn2cc(-c3ccc(-c4ccccc4)cc3)nn2)nc2ccccc2c1=O`: the IC50 (in test [1]; with HL-60; in the test with MCF7; in the test with HCT-116; with COLO 205; in the test on A549) was greater than 10 µM each time.
Turning to `Cc1ccccc1-n1c(Cn2cc(-c3ccc(-c4ccccc4)cc3)nn2)nc2cccc(C)c2c1=O`, the IC50 (in test [1]; in the test on HL-60; in the test on MCF7; in the test on HCT-116; with COLO 205; with A549) was greater than 10 µM each time.
On to `Cc1ccccc1-n1c(Cn2cc(-c3ccc(Br)cc3)nn2)nc2cccc(C)c2c1=O`, for which the IC50 (in test [1]; with HL-60; with MCF7; in the test on HCT-116; in the test with COLO 205; in the test with A549) was greater than 10 µM each time.
Consider `Cc1ccc(-c2cn(Cc3nc4cccc(C)c4c(=O)n3-c3ccccc3C)nn2)cc1`, for which the IC50 (in test [1]; in the test with HL-60; in the test on MCF7; in the test with HCT-116; with COLO 205; in the test on A549) was greater than 10 µM in each case.
